Data from PubChem BioAssay (NCI).
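Cells were grown in 96-well plates and exposed to each compound for 48 hours at five concentrations; endpoints were interpolated linearly between bracketing concentrations, or set to the highest concentration if not reached. GI50 marks 50% less growth. TGI: concentration producing complete growth inhibition.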

Key:
Assay in all cases: NCI tumour cell line growth inhibition, 48 h
RPMI-8226 leukemia = system: RPMI-8226 leukemia
UACC-257 melanoma = system: UACC-257 melanoma
NCI-H226 lung = system: NCI-H226 lung
SF-268 CNS = system: SF-268 CNS
SNB-75 CNS = system: SNB-75 CNS
UACC-62 melanoma = system: UACC-62 melanoma
HCT-116 colon = system: HCT-116 colon
COLO 205 colon = system: COLO 205 colon
CCRF-CEM leukemia = system: CCRF-CEM leukemia
SR leukemia = system: SR leukemia

SMILES	GI50 (RPMI-8226 leukemia) [µM]	TGI (RPMI-8226 leukemia) [µM]	GI50 (UACC-257 melanoma) [µM]	TGI (UACC-257 melanoma) [µM]	GI50 (NCI-H226 lung) [µM]	TGI (NCI-H226 lung) [µM]	GI50 (SF-268 CNS) [µM]	TGI (SF-268 CNS) [µM]	GI50 (SNB-75 CNS) [µM]	TGI (SNB-75 CNS) [µM]	GI50 (UACC-62 melanoma) [µM]	TGI (UACC-62 melanoma) [µM]	GI50 (HCT-116 colon) [µM]	TGI (HCT-116 colon) [µM]	GI50 (COLO 205 colon) [µM]	TGI (COLO 205 colon) [µM]	TGI (CCRF-CEM leukemia) [µM]	GI50 (CCRF-CEM leukemia) [µM]	TGI (SR leukemia) [µM]	GI50 (SR leukemia) [µM]
C=C(CN1CCN(c2ccc(F)c(Cl)c2)CC1)c1ccc(C(=O)Nc2ccccc2N)cc1	1.46	5.1	13.9	47.3	9.12	55.3	4.35	> 100	> 100	> 100	5.24	54.3	3.08	10.3	> 100	> 100				
C=C1C(=O)OC2(C)CCC1CC1OC1(C)CCC=C(C)CCC2O (stereo not drawn)		> 100		> 100		> 100		> 100		> 100		> 100		> 100		> 100	> 100			
C=CCCC(=O)CC(=O)OCc1ccccc1		> 100		> 100				> 100		> 100		> 100		> 100		> 100	> 100			
CNc1nc(-c2ccc3c(N)n[nH]c3c2)cc(N2C[C@@H](C(=O)NC3CCCCC3)CC[C@H]2C)n1	2.93	18.3	1.3	16.8	6.74	22.7	2.98	19	0.457	7.23	0.858	16.3	4.4	18.8	1.54	12	> 48.1	1.78		
CCN1CCC(O)(/C=C/c2ccccc2)C(C(=O)/C=C/c2ccccc2)C1 (stereo not drawn)				4.55		9.93		7.36		19.2		3.49		3.08		3.49				
CC1=C(SCCC(=O)OC(C[Se]C2=C(C)C(=O)c3ccccc3C2=O)C(=O)NC(C)(C)C)C(=O)c2ccccc2C1=O (stereo not drawn)	0.507	2.71	1.76	3.2	1.87	4.14	1.55	2.88	1.45	2.76	1.48	2.83	0.384	1.44	1.66	3.14	1.2	0.306		
COC(=O)C#CC(N)=O				> 70.7		> 100		> 100		> 100		> 100		> 100		> 100	36.4		60.7	
C=CCO[C@H]1CC[C@@]2(C)C(CC[C@]3(C)C2CC=C2[C@@H]4[C@@H](C)C(C)CC[C@]4(C(=O)O)CCC23C)C1(C)C (stereo partly drawn)				32.3		39.6		40.5		30.2		28.3		25.5		32.4	28.9		36.2	
Cn1cc(-c2csc(-c3cn(C(=O)OC(C)(C)C)c4ccccc34)n2)c2cccnc21	7.66	36.7	8.97	23.6	3.07	20.6	8.01	35.3	1.7	8.63	7.8	22.4	4.7	17.8	2.97	14.6	67.6	3.89		
O=C1C(=Cc2ccc(F)cc2)C(=O)c2ccccc21		> 100		> 100		> 100		> 100		95.4		> 100		> 100		> 100	> 100			
CCSc1nc(N)c2cnn(CC)c2n1	2.38	6.44	10.2	36.5	3.41	30.9	23.3	66.7			4.8	24.5	5.94	32.8	18.9	> 100	10.8	3.58	48.9	2.27
CC[C@@H](C(=O)[C@@H](C)[C@@H](O)[C@H](C)[C@@H]1O[C@@H]([C@@H](CC)C(=O)O)CC[C@@H]1C)[C@H]1O[C@]2(C=C[C@@H](O)[C@]3(CC[C@@](C)([C@H]4CC[C@](O)(CC)[C@H](C)O4)O3)O2)[C@H](C)C[C@@H]1C	0.277	3.75	0.461	6.79	2.07	19.6	1.93	24.8	1.05	4.31	1.04	2.33	0.63	30.2	0.489	11	12.7	0.255		
COC(=O)C(=O)C(C#N)c1c(Cl)cccc1Cl (stereo not drawn)		> 100		> 100		> 100		> 100		> 100		> 100		> 100		> 100				
O=C1CC2OCC=C3CN4CCC5(C(=O)O)C(N1)C2C3CC45 (stereo not drawn)				> 100		> 100		> 100		> 100		> 100		> 100		> 100	> 100		> 100	
N#CC(C#N)C(c1ccccc1)c1ccccc1		> 100		> 100		> 100		> 100				> 100		> 100		> 100	> 100		> 100	
C/C(=N\Nc1n[nH]c(=S)n1N)c1c(O)cc(C)oc1=O				> 100		> 100		> 100		> 100		> 100		> 100			> 100		> 100	
CN(C)Cc1cc(C(C)(C)C)cc(CN(C)C)c1O		> 100		> 100				> 100		> 100		> 100		> 100		> 100	> 100		> 100	
Cc1ccc([N+]2=NC(c3ccccc3)=NN(c3ccccc3)C2)cc1		> 100		> 100		> 100		> 100						> 100		> 100	79.9		> 100	
